Literature values, collected in article PMC11491004, “CHF6523 data suggest that the phosphoinositide 3-kinase delta isoform is not a suitable target for the management of COPD” (Respiratory Research, 2024).

What was measured:
airway inflammation = test system: airway inflammation; parameters: method as in ref 12 = [12]; 12. Blomqvist S Andreasson T Arlbrandt S Bold P Bjorhall K Brülls M In vivo dual Pi3kγδ inhibition in a rat model of pulmonary inflammation - evidence of local therapeutic activity Am J Respir Crit Ca; conditions: cited from earlier work
PI3Kδ [1] = molecular target: T1, PI3Kδ (Homo sapiens, UniProt O00329); parameters: method as in ref 14 = [14]; 14. Wilson R Cahn A Montembault M Green J Musani N Begg M Safety, tolerability, pharmacokinetics (PK) and pharmacodynamics (PD) of single (SD) and repeat (RD) inhaled doses of a novel phosphoinositide; conditions: healthy volunteer study; Day 12; cited from earlier work
T1 sequence (O00329 whole entry): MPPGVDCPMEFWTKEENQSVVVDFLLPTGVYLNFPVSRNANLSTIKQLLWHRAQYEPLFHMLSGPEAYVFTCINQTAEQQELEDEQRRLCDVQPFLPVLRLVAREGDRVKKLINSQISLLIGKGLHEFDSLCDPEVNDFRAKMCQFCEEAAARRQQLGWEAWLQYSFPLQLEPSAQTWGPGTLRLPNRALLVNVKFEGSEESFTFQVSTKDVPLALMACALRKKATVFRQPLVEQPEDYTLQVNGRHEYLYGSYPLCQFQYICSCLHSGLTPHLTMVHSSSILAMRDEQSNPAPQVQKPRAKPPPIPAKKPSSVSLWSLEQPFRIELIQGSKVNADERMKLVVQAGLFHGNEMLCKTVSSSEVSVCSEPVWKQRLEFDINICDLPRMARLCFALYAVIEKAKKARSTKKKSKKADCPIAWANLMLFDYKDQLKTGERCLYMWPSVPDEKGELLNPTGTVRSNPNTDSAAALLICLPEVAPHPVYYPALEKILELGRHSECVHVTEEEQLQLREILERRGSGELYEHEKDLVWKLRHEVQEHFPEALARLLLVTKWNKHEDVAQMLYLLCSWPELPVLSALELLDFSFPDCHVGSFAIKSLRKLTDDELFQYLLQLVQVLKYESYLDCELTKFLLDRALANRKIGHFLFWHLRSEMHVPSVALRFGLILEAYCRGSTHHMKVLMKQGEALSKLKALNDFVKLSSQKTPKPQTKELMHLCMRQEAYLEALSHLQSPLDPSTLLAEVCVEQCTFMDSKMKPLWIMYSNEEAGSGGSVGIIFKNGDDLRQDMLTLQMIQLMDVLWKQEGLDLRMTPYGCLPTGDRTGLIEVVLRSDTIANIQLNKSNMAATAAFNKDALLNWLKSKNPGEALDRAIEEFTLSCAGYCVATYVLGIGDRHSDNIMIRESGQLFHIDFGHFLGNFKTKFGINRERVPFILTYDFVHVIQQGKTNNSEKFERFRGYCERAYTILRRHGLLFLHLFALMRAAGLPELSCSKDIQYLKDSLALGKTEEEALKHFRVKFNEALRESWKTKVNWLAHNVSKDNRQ
T1 sequence (P27986 whole entry partner): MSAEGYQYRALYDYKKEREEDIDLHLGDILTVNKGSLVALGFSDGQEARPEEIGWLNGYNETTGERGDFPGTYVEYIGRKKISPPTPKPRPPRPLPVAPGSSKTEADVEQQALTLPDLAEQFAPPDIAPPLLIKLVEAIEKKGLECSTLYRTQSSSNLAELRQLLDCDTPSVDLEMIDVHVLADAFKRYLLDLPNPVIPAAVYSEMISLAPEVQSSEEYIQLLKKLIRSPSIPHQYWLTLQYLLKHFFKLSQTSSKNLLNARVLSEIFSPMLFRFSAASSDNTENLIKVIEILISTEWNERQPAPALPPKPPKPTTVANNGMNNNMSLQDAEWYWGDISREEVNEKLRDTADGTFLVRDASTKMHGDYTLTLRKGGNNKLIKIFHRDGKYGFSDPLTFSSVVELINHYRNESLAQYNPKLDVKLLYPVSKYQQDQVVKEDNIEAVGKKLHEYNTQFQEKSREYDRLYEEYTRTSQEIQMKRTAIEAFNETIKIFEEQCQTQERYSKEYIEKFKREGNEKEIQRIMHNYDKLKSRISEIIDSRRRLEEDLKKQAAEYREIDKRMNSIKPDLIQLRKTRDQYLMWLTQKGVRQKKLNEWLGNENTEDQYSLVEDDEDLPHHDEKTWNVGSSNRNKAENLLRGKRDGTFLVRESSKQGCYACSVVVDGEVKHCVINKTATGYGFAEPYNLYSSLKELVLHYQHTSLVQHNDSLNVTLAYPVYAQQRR

[2] = parameters: method as in PMID 34113095; conditions: cited from earlier work
sputum IL-6 and IL-8 = test system: sputum IL-6 and IL-8; parameters: method as in PMID 28823947; conditions: patients with COPD; cited from earlier work
[3] = test system: sputum IL-5, IL-13, IL-6 or IL-8; parameters: method as in PMID 30217958; conditions: patients with asthma; cited from earlier work
PI3Kδ [4] = molecular target: T1, PI3Kδ; parameters: from tissue; host or cells: induced sputum of COPD patients (in vivo dosing by inhalation); method as in PMID 30886125; conditions: healthy smokers; cited from earlier work
PI3Kδ [5] = molecular target: T1, PI3Kδ; parameters: from tissue; host or cells: induced sputum of COPD patients (in vivo dosing by inhalation); method as in PMID 36841351; conditions: activated PI3Kδ syndrome; cited from earlier work

Compound	Efficacy in a rat model of airway inflammation (airway inflammation)	Reduction in PIP3 (PI3Kδ [1]) [%]	Primary and secondary endpoints ([2]; Phase IIb, patients with exacerbating COPD)	Most common adverse event ([2]; experienced post-inhalation and dose-related)	Sputum IL-6 and IL-8 levels compared to placebo (sputum IL-6 and IL-8)	Sputum IL-5, IL-13, IL-6 or IL-8 compared to placebo [3]	Target engagement (PI3Kδ [4])	Changes in target engagement or downstream inflammatory markers in induced sputum (PI3Kδ [5])
Cc1nc(Nc2cccc(N3CCCC3=O)n2)sc1-c1cc2c(c(S(C)(=O)=O)c1)C(=O)N([C@@H](C)C1CC1)C2 [AZD8154]	demonstrated efficacy	–	–	–	–	–	–	–
CC(C)N1CCN(Cc2cnc(-c3cc(-c4cccc5[nH]ccc45)cc4[nH]ncc34)o2)CC1 [nemiralisib]	–	35.7	neither the primary nor secondary endpoints were met	cough	did not significantly reduce	did not yield statistically significant reductions	demonstrated target engagement	no meaningful changes
